Measurements: PMC5882637, “Ethanol potentiates the genotoxicity of the food-derived mammary carcinogen PhIP in human estrogen receptor-positive mammary cells: mechanistic support for lifestyle factors (cooked red meat and ethanol) associated with mammary cancer” (Archives of Toxicology, 2018)

Legend:
[1] = system: CYP2E1 mRNA expression; assay: RT-qPCR CYP2E1 mRNA, MCF-7
Protocol: (§1) Cells were cultured routinely in 75-cm^2 flasks in a humidified incubator at 37 °C, 5% CO2.
For STAT3 inhibition, cells were co-treated for 24 h with PhIP and 25 µM STAT3 inhibitor (STAT3 inhibitor VIII 5, 15 diphenylporphyrin, Millipore, Feltham, UK). STAT3 inhibitor was dissolved in DMSO. For ethanol treatment, media was supplemented with different concentrations of ethanol (10 mM-100 mM, Sigma-Aldrich) and was added to the cells. In some experiments, N-acetyl-cysteine (NAC) (10 mM, Sigma-Aldrich) diluted in phosphate-buffered saline (PBS) was added to incubations.
(§2) Following treatment, cells were lysed using TRIZOL reagent and chloroform (0.2 ml) was added in each sample and centrifuged 12,000xg (10 min 2–8 °C). The upper aqueous phase was transferred to a fresh tube and 5 µg of RNase-free glycogen (as carrier to aqueous phase) and 0.5 ml of isopropyl alcohol was added to precipitate RNA and incubated (37 °C, 10 min). Following incubation, lysates were centrifuged at 12,000xg (10 min 2–8 °C). The gel-like pellet was washed with ethanol and re-dissolved in RNase-free water with heating (55–60 °C). Extracted RNA was quantified by UV spectroscopy (UV–VIS Nano-spectrophotometer, Implen, Essex, UK) and purity was assessed from 260/280 nm and 260/230 nm ratios. Reverse transcription (RT) of extracted RNA (100–500 ng) was completed according to manufacturer’s protocol (Invitrogen) and qPCR was performed using predesigned Taqman gene expression assays and FAST PCR master mix (Taqman, Applied Biosystems, Life technologies) using a StepOnePlus fast real-time PCR system (Applied Biosystems, Life technologies). Target gene expression was normalized to GAPDH and quantified using the delta-Ct method (Livak and Schmittgen [2001]).

[2] = system: intracellular ROS in MCF-7 cells; assay: ROS assay (carboxy-DCF-DA), MCF-7; format: cell-based, human; settings: for intracellular ROS levels: ethanol 50 mM or PhIP 100 µM alone, Fig. 6c
Protocol: STAT3 inhibitor was dissolved in DMSO.
Production of reactive oxygen species (ROS) was measured using 2′,7′–dichlorofluorescein diacetate method. Carboxy-2′,7′-dichlorofluorescein diacetate (carboxy-DCF-DA) is taken up by viable cells and cleaved by endogenous esterases to the nonfluorescent derivative, reduced carboxy-dichlorofluorescein (carboxy-DCFH). This product is retained in the cytosol where it can be oxidized by intracellular ROS to the highly fluorescent product, oxidised carboxy-dichlorofluorescein (carboxy-DCF). The intensity of fluorescence is proportional to intracellular ROS levels. MCF-7 cells (2 × 10^4/well) were seeded into 24-well plates in 1% FBS and allowed to attach overnight. Cells were treated with PhIP for 24 h and then treated with Carboxy-DCFDA (20 µL, 30 µM) in media containing 1% FBS (1 ml) and incubated for 30 min at 37 °C, washed with PBS and new media (1% FBS) was added. Fluorescent measurements (excitation at 485 nm and emission at 520 nm) were then taken from 10 min to 24 h using a fluorescence plate reader (BMG POLARstar Galaxy Labtech, Ortenberg, Germany). The concentration of DMSO (0.2%) was identical in all treatments and had no effect on ROS production at this concentration.

[3] = system: CYP1A2 mRNA expression; assay: RT-qPCR CYP1A2 mRNA, MCF-7; settings: Fig. 2a; for CYP1A2 mRNA expression vs vehicle control: 24 h, E2 1 µM
Protocol: as §1, §2

[4] = system: MCF-7 cells; assay: Cytotoxicity (cell counting, TrypanBlue exclusion), MCF-7; settings: for change in cell survival following treatment: Fig. 1a
Protocol: as §1
(§3) Briefly, cells were seeded at a density of 5 × 10^4 cells per well in 24-well plate. Cells were treated with PhIP or ethanol as detailed previously. Following treatment with chemicals and harvesting (48 h), cells were trypsinised, the cell concentration adjusted to 2 × 10^5 and re-suspended in serum-free R0 (serum-free media) with 2% pluronic acid medium (GIBCO, Life technologies) and cytotoxicity was determined by counting cells in a haemocytometer with TrypanBlue exclusion (GIBCO, Life technologies). For the MN assay, cells were spread on a microscope slide using a cytospin. Cells at a density of 2 × 10^4 cells per slide were fixed with 100% methanol and stained for 60 s with acridine orange (0.1 mg ml^−1 dissolved in PBS, Sigma-Aldrich). Frequency of MN was scored in 2000 cells per sample and three biological replicates were performed per treatment.

[5] = system: CYP1A2 mRNA expression; assay: RT-qPCR CYP1A2 mRNA, MDA-MB-231; settings: Fig. 2c; for CYP1A2 mRNA expression vs vehicle control: 24 h, E2 1 µM
Protocol: as §1, §2

[6] = system: CYP1B1 mRNA expression; assay: RT-qPCR CYP1B1 mRNA, MCF-7
Protocol: as §1, §2

[7] = system: MDA-MB-231 cells; assay: Cytotoxicity (cell counting, TrypanBlue exclusion), MDA-MB-231; settings: for change in cell survival following treatment: Fig. 1b
Protocol: as §1, §3

[8] = system: JAK2 mRNA expression; assay: qPCR JAK2 mRNA, MCF-7; format: cell-based, human; settings: PhIP-treated, Fig. 3b
Protocol: as §1, §2

[9] = system: CYP1A1; assay: RT-qPCR CYP1A1 mRNA, MDA-MB-231; format: cell-based, human; settings: data not shown
Protocol: as §1, §2

[10] = system: CYP1B1 mRNA expression; assay: RT-qPCR CYP1B1 mRNA, MDA-MB-231; settings: 24 h
Protocol: as §1, §2

[11] = system: MCF-7 cells; assay: Micronucleus (MN) assay, MCF-7
Protocol: as §1, §3

[12] = system: CYP2E1 mRNA expression; assay: RT-qPCR CYP2E1 mRNA, MDA-MB-231; format: cell-based, human; settings: PhIP treatment, Fig. 3a
Protocol: as §1, §2

[13] = system: STAT3 mRNA expression; assay: qPCR STAT3 mRNA, MCF-7; format: cell-based, human
Protocol: as §1, §2

[14] = system: CYP1A1; assay: RT-qPCR CYP1A1 mRNA, MCF-7; format: cell-based, human; settings: data not shown
Protocol: as §1, §2

[15] = system: miR378 expression; assay: qPCR miR378, MCF-7; format: cell-based, human; settings: 24 h PhIP treatment, Fig. 3b
Protocol: as §1, §2

[16] = system: MDA-MB-231 cells; assay: Micronucleus (MN) assay, MDA-MB-231
Protocol: as §1, §3

[17] = system: intracellular ROS in MCF-7 cells; design: method as in Li et al. [2013]; Martinez-Outschoorn et al. [2010]; settings: NAC 10 mM, ref Li et al. [2013], Martinez-Outschoorn et al. [2010]; cited from earlier work
[18] = etoposide positive control (1.25 µM)
[19] = PhIP 100 nM, three independent cultures

C1=Cc2nc1cc1ccc([nH]1)c(-c1ccccc1)c1nc(cc3ccc([nH]3)c2-c2ccccc2)C=C1 [STAT3 inhibitor, 5, 15 diphenylporphyrin, reference compound]
effect of STAT3 inhibitor on CYP2E1 mRNA upregulation by PhIP ([1]; inhibitor 25 µM co-treated with PhIP 24 h, Fig. 4a): completely abolished
effect of STAT3 inhibitor on H2O2-induced ROS ([2]; Fig. 5b): failed to attenuate
effect of STAT3 inhibitor on ROS production by PhIP ([2]; PhIP 100 µM 24 h, inhibitor 25 µM, Fig. 5b): significantly reduced

C[C@]12CC[C@@H]3c4ccc(O)cc4CC[C@H]3[C@@H]1CC[C@@H]2O [E2, Estradiol]
CYP1A2 mRNA expression vs vehicle control [3]: No significant change
change in cell survival following treatment [4]: No significant change
CYP1A2 mRNA expression vs vehicle control [5]: No significant change
CYP1B1 mRNA expression vs vehicle control ([6]; MCF-7, 24 h, E2 1 µM, Fig. 2b): upregulated
change in cell survival following treatment [7]: No significant change

COc1cc([C@@H]2c3cc4c(cc3[C@@H](O[C@@H]3O[C@@H]5CO[C@@H](C)O[C@H]5[C@H](O)[C@H]3O)[C@H]3COC(=O)[C@H]23)OCO4)cc(OC)c1O [Etoposide, reference compound]
Cytotoxicity (percent survival ± SD) [4, 18]: 81.7% ±1.4
Cytotoxicity (percent survival ± SD) [7, 18]: 83.7% ± 2.3

Cn1c(N)nc2ncc(-c3ccccc3)cc21 [PhIP, 2-amino-1-methyl-6-phenylimidazo[4,5-b]pyridine]
JAK2 mRNA expression [8]: dose-dependent increase
CYP1A1 induction [9]: failed to induce
CYP1A2 mRNA expression vs vehicle control [3]: can induce
change in cell survival following treatment [4]: No significant change
Cytotoxicity (percent survival ± SD) [4, 19]: 86% ± 2.4
Cytotoxicity (percent survival ± SD) ([4]; PhIP 1 µM): 85.6% ± 2.4
Cytotoxicity (percent survival ± SD) ([4]; PhIP 10 µM): 85.8% ± 2.6
Cytotoxicity (percent survival ± SD) ([4]; PhIP 100 µM): 82.7% ± 1.7
CYP1B1 mRNA expression vs vehicle control ([10]; E2 1 µM, Fig. 2d): can induce
MN frequency (mean ± SD) [11, 19]: 12.8 ± 5.1 MN/1000 cells
MN frequency (mean ± SD) ([11]; PhIP 1 µM): 22.3 ± 2.6 MN/1000 cells
MN frequency (mean ± SD) ([11]; PhIP 10 µM): 29.2 ± 3.4 MN/1000 cells
MN frequency (mean ± SD) ([11]; PhIP 100 µM): 49 ± 3.5 MN/1000 cells
CYP2E1 mRNA expression ([1]; PhIP treatment, Fig. 3a): induced CYP2E1 mRNA expression in a dose-dependent manner
ROS levels ([2]; PhIP 24 h, pronounced over the first 60 min, Fig. 5a): dose-dependent increase
intracellular ROS levels [2]: Elevated
CYP2E1 mRNA expression [12]: but not in MDA-MB-231 cells
STAT3 mRNA expression ([13]; 24 h PhIP treatment, Fig. 3b): dose-dependent upregulation
CYP1A1 induction [14]: failed to induce
CYP1A2 mRNA expression vs vehicle control [5]: can induce
miR378 expression [15]: no change
CYP1B1 mRNA expression vs vehicle control ([6]; MCF-7, 24 h, E2 1 µM, Fig. 2b): can induce
CYP1B1 induction in MCF-7 compared to MDA-MB-231 cells ([6]; PhIP, Fig. 2): higher
change in cell survival following treatment [7]: No significant change
Cytotoxicity (percent survival ± SD) ([7]; PhIP 100 nM): 87.2% ± 0.9
Cytotoxicity (percent survival ± SD) ([7]; PhIP 1 µM): 88.1% ± 0.9
Cytotoxicity (percent survival ± SD) ([7]; PhIP 10 µM): 90.4% ± 4.3
Cytotoxicity (percent survival ± SD) ([7]; PhIP 100 µM): 87.7% ± 1.5
MN frequency (mean ± SD) ([16]; PhIP 100 nM): 3.2 ± 2.5 MN/1000 cells
MN frequency (mean ± SD) ([16]; PhIP 1 µM): 4.7 ± 1.8 MN/1000 cells
MN frequency (mean ± SD) ([16]; PhIP 10 µM): 9 ± 0.9 MN/1000 cells
MN frequency (mean ± SD) ([16]; PhIP 100 µM): 13.7 ± 1.3 MN/1000 cells

CCO [ethanol]
effect of addition of ethanol on genotoxicity of etoposide ([11]; Fig. 7b): No change
MN induction ([11]; ethanol 50 mM, 24 h, Fig. 7b): did not significantly induce
ethanol concentration at which CYP2E1 increase was significant ([1]; Fig. 6a): 50 to 100 mM
CYP2E1 expression ([1]; ethanol 10 to 100 mM, Fig. 6a): dose-dependent increase
intracellular ROS levels [2]: Elevated

CC(=O)N[C@@H](CS)C(=O)O [NAC, N-acetyl-cysteine, reference compound]
accumulation of ROS [17]: abolish
effect of NAC on cell survival ([4]; ethanol 50 mM and PhIP 100 µM with NAC 10 mM, Fig. 7d): did not affect
effect of NAC on genotoxicity of etoposide ([11]; NAC 10 mM, Fig. 7e): little effect
effect of NAC on genotoxicity of PhIP plus ethanol ([11]; NAC 10 mM, p = 0.01, Fig. 7e): decreased the genotoxicity of PhIP plus ethanol significantly
effect of NAC on ethanol-induced ROS production ([2]; ethanol 50 mM plus NAC 10 mM, Fig. 7c): clear decrease

C[C@]12CC[C@@H]3c4ccc(O)cc4C[C@@H](CCCCCCCCC[S+]([O-])CCCC(F)(F)C(F)(F)F)[C@H]3[C@@H]1CC[C@@H]2O (stereo partly shown) [ICI, Fulvestrant, reference compound]
effect of ICI on PhIP upregulation of CYP1A2 mRNA [3]: unaffected
effect of concurrent ICI on PhIP-mediated induction of CYP1B1 [10]: in MCF-7 cells only
effect of ICI co-incubation on MN induction by etoposide ([11]; Fig. 1): not affected
effect of ICI on E2-mediated genotoxicity ([11]; Fig. 1): attenuated
effect of ICI co-treatment on PhIP MN formation ([11]; p < 0.001, Fig. 1c): significantly attenuated
effect of ICI on CYP2E1 expression (PhIP co-treatment) ([1]; ICI 182,780 1 µM, Fig. 4c): significantly blocked
effect of ICI on PhIP-mediated STAT3 increase ([13]; co-treatment with PhIP, Fig. 4b): inhibited
effect of ICI on PhIP upregulation of CYP1A2 mRNA [5]: unaffected
effect of concurrent ICI on PhIP-mediated induction of CYP1B1 ([6]; MCF-7, 24 h, p = 0.05): significantly inhibited
effect of ICI co-treatment on E2-upregulated CYP1B1 expression ([6]; MCF-7, E2 1 µM, Fig. 2b): attenuated significantly
effect of ICI co-incubation on MN induction by etoposide ([16]; Fig. 1): not affected
effect of ER antagonist (ICI) on DNA damaging ability of PhIP ([16]; Fig. 1d): no change
